Test system: WI-38 cells
Type: cell-based, human
Settings: Alamar Blue, 72 hours after addition to WI-38 cells
Description: Conventional LNPs rely on endosomal escape for intracellular delivery, which results in limited nucleic acid release into the cytosol and is one of the major limitations of LNPs formulated for gene therapy (13, 20, 41). […] These lipids were utilized in a PLV formulation to promote nucleic acid encapsulation through charge neutralization. The optimal molar ratio of DODAP to pDNA was assessed by measuring the delivery and subsequent expression of DNA-encoded firefly luciferase (pDNA-FLuc) in retinal pigmented epithelial (ARPE-19) cells.
Cell cultures in a 96 well plates were treated with test compounds at indicated concentrations. After 24-96 hours, a 1/10 volume of Alamar blue solution (440 μM Resazurin; Sigma R7017 5GM) was added to the cells in culture medium and incubated for 2-4 hours at 37° C. 5% CO2. The Omega Fluostar (BMG LabTech) plate reader was used to measure the fluorescence (excitation wavelength of 540 nm and emission at 590 nm) of the treated cells. Cell viability was calculated using the following formula: […]

Row | SMILES | tolerability / toxicity of cationic and ionizable lipids
1 | CCCCCCCC/C=C\CCCCCCCC(=O)OCC(CN(C)C)OC(=O)CCCCCCC/C=C\CCCCCCCC (centres unmarked) [DODAP, 1,2-dioleoyl-3-dimethylammonium-propane] | most favorable tolerability
2 | CCCCCCCC/C=C\CCCCCCCC(=O)OCC(C[N+](C)(C)C)OC(=O)CCCCCCC/C=C\CCCCCCCC (centres unmarked) [DOTAP, 1,2-dioleoyl-3-trimethylammonium-propane] | slightly higher toxicity
